Consider two compounds from ChEMBL document CHEMBL4823276, “Comparative studies on the substrate specificity and defucosylation activity of three α-l-fucosidases using synthetic fucosylated glycopeptides and glycoproteins as substrates” (Bioorg Med Chem, 2021).

What all share (assay type): ADME
Series [1] is described as follows: Substrate activity at recombinant His-tagged Bacteroides fragilis alpha L-fucosidase expressed in Escherichia coli BL21(DE3) assessed as formation of p-nitrophenyl products at 5 mM measured by UV spectrometer assay. The following applies: 5000 µM.
The nature of series [2]: Substrate activity at recombinant His-tagged Lactobacillus casei alpha L-fucosidase expressed in Escherichia coli […] assessed as formation of p-nitrophenyl products at 5 mM measured by UV spectrometer assay. The conditions noted are these: lacticaseibacillus casei, 5000 µM.
Series [3] in a line: Substrate activity at recombinant His-tagged Bacteroides fragilis alpha L-fucosidase expressed in Escherichia coli BL21(DE3) assessed as de-fucosylation of N-glycan at 5 mg/ml measured after 21 hrs by LC/MS analysis.
Series [4] can be described thus: Substrate activity at recombinant His-tagged Lactobacillus casei alpha L-fucosidase expressed in Escherichia coli […] assessed as de-fucosylation of N-glycan at 5 mg/ml measured after 21 hrs by LC/MS analysis. The conditions noted are these: lacticaseibacillus casei.

Take `C[C@@H]1O[C@@H](Oc2ccc([N+](=O)[O-])cc2)[C@@H](O)[C@H](O)[C@@H]1O`: the figures for the Activity result in series [1] and in series [2] were “Active” and “Not Active”, respectively.

Take `CC(=O)N[C@@H]1[C@@H](O)[C@H](O[C@@H]2O[C@H](CO)[C@@H](O[C@@H]3O[C@H](CO[C@H]4O[C@H](CO)[C@@H](O)[C@H](O)[C@@H]4O[C@@H]4O[C@H](CO[C@@H]5O[C@H](CO[C@]6(C(=O)O)C[C@H](O)[C@@H](NC(C)=O)C([C@H](O)[C@H](O)CO)O6)[C@H](O)[C@H](O)[C@H]5O)[C@@H](O)[C@H](O)[C@H]4NC(C)=O)[C@@H](O)[C@H](O[C@H]4O[C@H](CO)[C@@H](O)[C@H](O)[C@@H]4O[C@@H]4O[C@H](CO)[C@@H](O[C@@H]5O[C@H](CO[C@]6(C(=O)O)C[C@H](O)[C@@H](NC(C)=O)C([C@H](O)[C@H](O)CO)O6)[C@H](O)[C@H](O)[C@H]5O)[C@H](O)[C@H]4NC(C)=O)[C@@H]3O)[C@H](O)[C@H]2NC(C)=O)[C@@H](CO[C@H]2O[C@H](C)[C@H](O)[C@H](O)[C@H]2O)O[C@H]1NC(=O)CNC(=O)C[C@H](NC(=O)[C@H](CCC(N)=O)NC(=O)CN)C(=O)N[C@@H](CC(=O)O)C(=O)N[C@H](C(=O)N[C@@H](CO)C(=O)N[C@@H](CCC(N)=O)C(=O)N[C@H](C(=O)N[C@@H](CO)C(=O)N[C@@H](CO)C(=O)N1CCC[C@H]1C(=O)N[C@@H](CO)C(=O)N[C@@H](CC(C)C)C(=O)N1CCC[C@H]1C(=O)N[C@@H](CCCCN)C(=O)N[C@H](C(=O)NCC(=O)NCC(=O)N[C@@H](CO)C(=O)O)[C@@H](C)O)[C@@H](C)O)[C@@H](C)O` (some centres undefined): the Activity entry in series [3] and in series [4] was “Not Active” throughout.
